Tests used:
H9 cells [1] = assay: Rho kinase inhibitor concentration for attachment and growth of H9 cells on micro-carriers; type: cell-based, human; settings: H9 passage 44, MEF-CM, rocking platform
Description: A starting aliquot of 13,333 cells/cm^2 H9 cells at passage 44 was seeded onto 15 cm^2 of micro-carriers in a single well of a 12 well non-tissue culture treated plate. The cells were placed at 37° C. for at least 60 minutes before placing them onto a rocking platform at 37° C. Prior to adding the cells, HILLEX®II (Solohill, MI) and Cytodex 3® (GE Healthcare Life Sciences, NJ) micro-carriers were prepared as directed by the manufacturer. Cells were grown in MEF-CM plus a range of Rho kinase inhibitor concentrations, Y27632 at 10, 5, 2.5 or 1 μM, or (S)-(+)-4-Glycyl-2-methyl-1-[(4-methyl-5-isoquinolinyl)sulfonyl]-hexahydro-1H-1,4-diazepine dihydrochloride (Glycyl-H 1152 dihydrochloride (H), Tocris, MO) at 5, 2.5, 1 or 0.5 μM). The medium was changed daily and one well of cells was counted at 4 and 7 days after seeding for yield and viability (FIGS. 7, A and B).

H1 cells [2] = assay: Dose titration of Rho kinase inhibitor, H1 cells on micro-carriers; type: cell-based, human
Description: Next a dose titration of the Rho kinase inhibitor was attempted since it has been characterized as a […]. H1 cells at passage 48 were dissociated from MATRIGEL™ (BD Biosciences, CA) coated plates with TrypLE™ Express. The cells were then seeded onto 15 cm^2 of micro-carriers into a single well of a 12 well non-tissue culture treated plate. HILLEX®II (Solohill, MI), Cytodex 1®, or Cytodex 3® (GE Healthcare Life Sciences, NJ) micro-carriers were tested with decreasing amounts of Rho kinase inhibitor: 10 μM Y27632 (Sigma-Aldrich, MO) was used on day one followed by […] on day two (Y10/5 μM); 2.5 μM Glycyl-H 1152 dihydrochloride (Tocris, MO) was used on day one followed by 0.5 μM on day two (H2.5/0.5 μM); 1 μM Glycyl-H 1152 dihydrochloride (Tocris, MO) was used on day one followed by 0.5 μM Glycyl-H 1152 dihydrochloride (Tocris, MO) on day two (H1/0.5 μM); or continuous addition of 0.25 μM Glycyl-H 1152 dihydrochloride (Tocris, MO) was applied daily in MEF-CM (H0.25 μM). H1 cells and micro-carriers were agitated every 45 minutes for 3 hours at 37° C. before being placed on a rocking platform at 37° C. Cells were counted after 3, 5 and 7 days on the rocking platform at 37° C. (FIG. 8). Overall the best concentration of Glycyl-H 1152 dihydrochloride (Tocris, MO) was 1-2.5 μM on day one and 0.5 μM on day 2 followed by withdrawal of the compound. […] Using a minimal amount of Rho-kinase inhibitor also helps reduce costs for the process and maybe beneficial to cell proliferation.

H9 cells [3] = assay: Proliferation of H9 cells on micro-carriers in defined medium; type: cell-based, human; settings: H9 p64, StemPro, 2.5 μM, on Cytodex 3 micro-carriers
Description: To manufacture a therapeutic product, it is desirable to remove any animal components from the human embryonic stem cell culture medium. Currently human embryonic stem cells are maintained on MATRIGEL™ (BD Biosciences, CA) in medium conditioned using mouse embryonic fibroblasts (MEF-CM). Both MATRIGEL™ (BD Biosciences, CA) and MEF-CM are derived from mouse cells. Additionally, MEF-CM is an expensive and time-consuming medium to generate. To determine if human embryonic stem cells can be sustained on micro-carriers with defined medium, H9 cells were seeded onto Cytodex 3® (GE Healthcare Life Sciences, NJ) and HILLEX®II (Solohill, MI) micro-carriers in the presence of Rho kinase inhibitors, 10 μM Y27632 (Sigma-Aldrich, MO) or 2.5 μM Glycyl-H 1152 dihydrochloride (Tocris, MO) in Stem Pro (Invitrogen, CA), mTESR (StemCell Technologies, Vancouver, Canada) or MEF-CM. The cells were placed in a 12 well dish on a rocking platform at 37° C. The cells were counted at days 3, 5 and 7. […] Therefore the micro-carrier type, Rho kinase inhibitor, and medium all play a role in determining the ability of human embryonic stem cells to proliferate.

H1 cells [4] = assay: Proliferation of H1 cells on micro-carriers in defined medium; type: cell-based, human; settings: H1 passage 38, MEF-CM
Description: H1 human embryonic stem cells at passage 38 were seeded onto either Cytodex 3® or HILLEX®II micro-carriers in the presence of Rho kinase inhibitors, 10 μM Y27632 (Sigma-Aldrich, MO) or 2.5 μM Glycyl-H 1152 dihydrochloride in mTESR (StemCell Technologies, Vancouver, Canada) or MEF-CM in a 12 well dish. The cells were placed on a rocking platform at 37° C. The cells were counted at days 3, 5 and 7.
Cells were incubated at 37° C. in a 10 cm^2 dish for 5 hours with agitation by hand every 45 minutes. mTESR (StemCell Technologies, Vancouver, Canada) plus 10 μM Y27632 (Sigma-Aldrich, MO) was changed every other day. This was conducted in parallel with cells grown in MEF-CM (Example 5).

[5] = system: H1 human embryonic stem cells; assay: Single cell passage of H1 cells from fibroblast feeders to PRIMARIA; type: cell-based; settings: feeder free/matrix free culture on PRIMARIA, greater than 8 passages
Description: Method: Cells were routinely passaged by aspirating media, washing with PBS, and then treating the cells with a dissociation enzyme (collagenase, Accutase™, or TrypLE). Collagenase was used at 1 mg/ml concentration; Accutase™ or TrypLE were used at 1× stock concentration. All enzymes were used after reaching room temperature. A solution of 2% BSA in DMEM/F12 was added to each well and cells were uniformly suspended in the solution after treating the cells with enzyme. Cells were then centrifuged for 5 minutes at 200 g, the cell pellet and additional 2% BSA in DMEM/F12 solution was added to resuspend cells and the cell suspension was distributed to three 50 ml sterile conical tubes and centrifuged for 5 min at 200 g.
Using a sequential method, the fibroblast feeders were removed by high density passaging the cluster/colony style human embryonic stem cells to a Primaria surface by treating the MEF based culture with either Accutase™, TrypLE™, or collagenase. […] Cell number for cells lifted with TrypLE™ or Accutase™ was determined by counting trypan blue stained cells with a hemocytometer. […]
2nd passage: Cells were passaged at a ratio of 1 to 4 using a 10 minutes exposure to TrypLE™ or Accutase™. A shorter enzyme exposure time, which was determined empirically by treating the cells and monitoring for detachment, was also introduced. […]

H1 and H9 cells = assay: Attachment of H1 and H9 cells to micro-carrier beads in MEF-CM with 10 μM Y27632; type: cell-based, human; settings: 10 μM in MEF-CM, static culture
Description: To improve the attachment and proliferation of human embryonic stem cells on micro-carriers, a small molecule inhibitor of Rho-associated coiled coil forming protein serine/threonine kinase, Rho kinase inhibitor was added to the media. Specifically, Y27632, Y, (Sigma-Aldrich, MO) was used. MEF-CM plus 10 μM Y27632 (Sigma-Aldrich, MO) was changed daily. […] By analysis of images, human embryonic stem cells grown on HILLEX®II micro-carriers (Solohill, MI) appeared to attach and proliferate better than human embryonic stem cells on other micro-carriers tested. Additionally, H9 cells attached better to HILLEX®II (Solohill, MI) in the presence of the Rho kinase inhibitor (FIG. 1A compared to 1B).
The H1 human embryonic cell line was also tested for growth on micro-carriers for large-scale expansion. Because a Rho kinase inhibitor, Y27632 (Sigma-Aldrich, MO), was necessary for attachment of the H9 cell line, it was also assumed to be necessary for H1 cells. Cytodex 1®, Cytodex 3® (GE Healthcare Life Sciences, NJ), HILLEX®II, Plastic, ProNectinF, Plastic Plus micro-carriers (SoloHill Ann Arbor, MI) were prepared according to the manufacturer's instructions. […] After 3, 5 and 7 days, one well was imaged, harvested, and counted. […] Cells were detached according to Example 4 and counted for yield.

| Structure (SMILES) | concentration with the best attachment (day 4) (H9 cells [1]) [µM] | best concentration on day one (H1 cells [2]; H1 passage 48, MEF-CM, HILLEX II, Cytodex 1 or Cytodex 3) [µM] | best concentration on day 2 (H1 cells [2]; H1 passage 48, followed by withdrawal of the compound) [µM] | cell yield (H1 cells [2]; cells maintained in 0.25 μM continuously) | proliferation (H9 cells [3]) | growth (H1 cells [4]; 2.5 μM, on Cytodex 3) | pluripotency and differentiation capacity of culture [5] | attachment of H9 cells to micro-carriers (H1 and H9 cells) | effect of removal of the inhibitor on attachment (H1 cells [2]; H1 cells on micro-carriers) | expansion (H1 cells [4]; both micro-carrier types, 10 μM) |
| --- | --- | --- | --- | --- | --- | --- | --- | --- | --- | --- |
| Cc1cncc2cccc(S(=O)(=O)N3CCCN(C(=O)CN)C[C@@H]3C)c12.Cl.Cl [Glycyl-H 1152 dihydrochloride, (S)-(+)-4-Glycyl-2-methyl-1-[(4-methyl-5-isoquinolinyl)sulfonyl]-hexahydro-1H-1,4-diazepine dihydrochloride] | 5 | 1 to 2.5 | 0.5 | poor cell yield | did not proliferate well | poor growth | retains pluripotency and the ability to differentiate to definitive endoderm | – | – | – |
| C[C@@H](N)[C@H]1CC[C@H](C(=O)Nc2ccncc2)CC1 [Y27632] | – | – | – | – | – | – | – | attached and formed aggregates with all micro-carriers tested | did not cause the H1 cells to dissociate | typical expansion characteristics |

Source: patent US9969972B2, “Pluripotent stem cell culture on micro-carriers” (Janssen Biotech, Inc., priority 2008, dated 2018)
